Laboratory results from patent US8106055B2, “Substituted amide compounds” (Gruenenthal GmbH, priority 2007, dated 2012).

Legend:
[1] = molecular target: T1, human μ opiate receptor (Homo sapiens, UniProt P35372); test: Affinity for the human μ opiate receptor ([3H]-naloxone displacement, CHO-K1 receptor membrane preparation, SPA); format: binding; conditions: test concentration of 1 μM; read-out: μ (binding on the μ opioid receptor, % inhibition)
T1 construct: purchased PerkinElmer Life Sciences, Zaventem, Belgium RB-HOM; host or cells: CHO-K1 cells (membrane preparation)
T1 sequence (P35372 whole entry): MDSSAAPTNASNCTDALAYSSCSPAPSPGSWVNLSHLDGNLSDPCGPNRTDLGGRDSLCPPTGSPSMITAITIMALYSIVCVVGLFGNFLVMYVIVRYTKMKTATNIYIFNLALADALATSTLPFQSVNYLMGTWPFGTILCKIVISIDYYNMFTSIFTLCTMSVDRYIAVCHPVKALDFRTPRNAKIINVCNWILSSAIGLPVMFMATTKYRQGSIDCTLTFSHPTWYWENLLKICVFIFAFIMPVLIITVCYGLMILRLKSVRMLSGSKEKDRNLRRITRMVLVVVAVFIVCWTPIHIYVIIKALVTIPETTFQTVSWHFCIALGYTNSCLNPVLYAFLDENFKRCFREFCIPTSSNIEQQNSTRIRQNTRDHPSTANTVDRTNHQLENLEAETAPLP
Method in brief: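 Displacement of 1 nmol/l [3H]-naloxone measured by SPA counting after 90 min at room temperature, using human μ receptor CHO-K1 membrane preparation in Tris-HCl buffer with 0.06% BSA. Test substances at 1 μmol/l give % inhibition; dilution series yield IC50, then Ki (Cheng-Prusoff); non-specific binding with 100 μmol/l naloxone.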

[2] = molecular target: T2, serotonin (5-HT) reuptake (Rattus norvegicus, UniProt P31652); test: Inhibition of serotonin (5HT) reuptake in synaptosomes from rat brain; format: biochemical; conditions: test concentration of 10 μM; read-out: 5-HT (inhibition of reuptake of serotonin, % inhibition)
T2 construct: synaptosomes are freshly isolated from areas of the rat brain; from tissue; host or cells: rat brain synaptosomes (P2 fraction)
T2 sequence (P31652 whole entry): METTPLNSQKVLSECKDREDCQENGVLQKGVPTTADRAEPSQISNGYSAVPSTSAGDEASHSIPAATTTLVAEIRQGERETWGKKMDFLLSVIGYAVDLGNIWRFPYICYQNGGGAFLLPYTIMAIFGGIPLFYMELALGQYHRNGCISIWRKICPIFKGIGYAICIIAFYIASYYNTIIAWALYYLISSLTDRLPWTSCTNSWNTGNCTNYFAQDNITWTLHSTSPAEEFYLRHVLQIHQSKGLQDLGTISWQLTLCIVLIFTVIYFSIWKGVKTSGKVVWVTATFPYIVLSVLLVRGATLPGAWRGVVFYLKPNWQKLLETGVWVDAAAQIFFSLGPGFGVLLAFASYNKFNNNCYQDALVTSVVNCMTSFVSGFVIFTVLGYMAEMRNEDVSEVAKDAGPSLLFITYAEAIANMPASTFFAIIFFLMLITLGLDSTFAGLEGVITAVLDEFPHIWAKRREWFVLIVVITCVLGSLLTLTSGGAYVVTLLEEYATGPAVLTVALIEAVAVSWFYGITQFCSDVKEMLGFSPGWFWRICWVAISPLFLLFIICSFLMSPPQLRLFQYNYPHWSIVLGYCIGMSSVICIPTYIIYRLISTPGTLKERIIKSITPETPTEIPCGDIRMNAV
Method in brief: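 Compounds screened at 10 μM and reported as percent inhibition of serotonin uptake. Uptake measured in a freshly prepared P2 synaptosomal fraction from rat brain.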

COc1cc(C)c(S(=O)(=O)N(CCOCC(=O)NCC2CCC(C(c3ccccc3)N(C)C)CC2)Cc2ccccc2)c(C)c1 (centres unmarked) [Example 148, 2-(2-(N-benzyl-4-methoxy-2,6-dimethylphenylsulfonamido)ethoxy)-N-((4-((dimethylamino)(phenyl)methyl)cyclohexyl)methyl)acetamide]
inhibition at 1 µM [1]: 90%
inhibition at 10 µM [2]: 95%

COc1cc(C)c(S(=O)(=O)N(CCOCC(=O)NCCC2CCC(C(c3cccs3)N(C)C)CC2)Cc2ccccc2)c(C)c1 (centres unmarked) [Example 149, 2-(2-(N-benzyl-4-methoxy-2,6-dimethylphenylsulfonamido)ethoxy)-N-(2-(4-((dimethylamino) (thiophen-2-yl)methyl)cyclohexyl)ethyl)acetamide]
inhibition at 1 µM [1]: 91%
inhibition at 10 µM [2]: 91%

COc1ccc(S(=O)(=O)N2CCCCC2COCC(=O)NCC2CCC(C(c3ccccc3)N(C)C)CC2)cc1OC (centres unmarked) [Example 150, 2-((1-(3,4-Dimethoxyphenylsulfonyl)piperidin-2-yl)methoxy)-N-((4-((dimethylamino)(phenyl)methyl)cyclohexyl)methyl)acetamide]
inhibition at 1 µM [1]: 86%
inhibition at 10 µM [2]: 94%

COc1ccc(S(=O)(=O)N2CCCCC2COCC(=O)NCC2CCC(C(c3cccc(F)c3)N(C)C)CC2)c(OC)c1 (centres unmarked) [Example 151, 2-((1-(2,4-dimethoxyphenylsulfonyl)piperidin-2-yl)methoxy)-N-((4-((dimethylamino)(3-fluorophenyl)methyl)cyclohexyl)methyl)acetamide]
inhibition at 1 µM [1]: 90%
inhibition at 10 µM [2]: 87%

CN(C)C(c1cccs1)C1CCC(NC(=O)COCCN(C)S(=O)(=O)c2cccc(C(F)(F)F)c2)CC1 (centres unmarked) [Example 152, N-(4-((dimethylamino)(thiophen-2-yl)methyl)cyclohexyl)-2-(2-(N-methyl-3-(trifluoromethyl)phenylsulfonamido)ethoxy)acetamide]
inhibition at 1 µM [1]: 89%
inhibition at 10 µM [2]: 87%

COc1ccc(S(=O)(=O)N2CCC(OCC(=O)NC3CCC(C(c4cccs4)N(C)C)CC3)C2)cc1OC (centres unmarked) [Example 155, 2-(1-(3,4-dimethoxyphenylsulfonyl)pyrrolidin-3-yloxy)-N-(4-((dimethylamino)(thiophen-2-yl)methyl)cyclohexyl)acetamide]
inhibition at 1 µM [1]: 88%
inhibition at 10 µM [2]: 87%

Cc1ccc(S(=O)(=O)N2CCC(OCC(=O)NC3CCC(C(c4cccs4)N(C)C)CC3)C2)cc1 (centres unmarked) [Example 156, N-(4-((dimethylamino)(thiophen-2-yl)methyl)cyclohexyl)-2-(1-tosylpyrrolidin-3-yloxy)acetamide]
inhibition at 1 µM [1]: 80%
inhibition at 10 µM [2]: 87%

Cc1ccc(S(=O)(=O)N(C)CCOCC(=O)NCC2CCC(C(c3ccccc3)N(C)C)CC2)cc1 (centres unmarked) [Example 157, N-((4-((dimethylamino) (phenyl)methyl)cyclohexyl)methyl)-2-(2-(N,4-dimethylphenylsulfonamido)ethoxy)acetamide]
inhibition at 1 µM [1]: 87%
inhibition at 10 µM [2]: 88%

CN(C)C(c1cccc(F)c1)C1CCC(CNC(=O)COCCN(C)S(=O)(=O)c2ccc(Cl)cc2)CC1 (centres unmarked) [Example 158, 2-(2-(4-chloro-N-methylphenylsulfonamido)ethoxy)-N-((4-((dimethylamino)(3-fluorophenyl)methyl)cyclohexyl)methyl)acetamide]
inhibition at 1 µM [1]: 87%
inhibition at 10 µM [2]: 91%

CN(C)C(c1cccs1)C1CCC(NC(=O)COCCN(Cc2ccccc2)S(=O)(=O)c2ccccc2)CC1 (centres unmarked) [Example 161, 2-(2-(N-benzylphenylsulfonamido)ethoxy)-N-(4-((dimethylamino)(thiophen-2-yl)methyl)cyclohexyl)acetamide]
inhibition at 1 µM [1]: 86%
inhibition at 10 µM [2]: 94%

COc1ccc(S(=O)(=O)N2CCCC2COCC(=O)NC2CCC(C(c3cccs3)N(C)C)CC2)cc1 (centres unmarked) [Example 162, N-(4-((dimethylamino)(thiophen-2-yl)methyl)cyclohexyl)-2-((1-(4-methoxyphenylsulfonyl)pyrrolidin-2-yl)methoxy)acetamide]
inhibition at 1 µM [1]: 86%
inhibition at 10 µM [2]: 81%

COc1ccc(S(=O)(=O)N2Cc3ccccc3CC2COCC(=O)NCC2CCC(C(c3cccc(F)c3)N(C)C)CC2)cc1 (centres unmarked) [Example 163, N-((4-((dimethylamino)(3-fluorophenyl)methyl)cyclohexyl)methyl)-2-((2-(4-methoxyphenylsulfonyl)-1,2,3,4-tetrahydroisoquinolin-3-yl)methoxy)acetamide]
inhibition at 1 µM [1]: 87%
inhibition at 10 µM [2]: 96%

CN(C)C(c1cccc(F)c1)C1CCC(CNC(=O)COC2CCCCC2N(C)S(=O)(=O)c2ccc(Cl)c(Cl)c2)CC1 (centres unmarked) [Example 164, 2-(2-(3,4-dichloro-N-methylphenylsulfonamido)cyclohexyloxy)-N-((4-((dimethylamino)(3-fluorophenyl)methyl)cyclohexyl)methyl)acetamide]
inhibition at 1 µM [1]: 86%
inhibition at 10 µM [2]: 90%

COc1cc(C)c(S(=O)(=O)N2CCC(OCC(=O)NC3CCC(C(c4ccccc4)N(C)C)CC3)C2)c(C)c1 (centres unmarked) [Example 165, N-(4-((dimethylamino)(phenyl)methyl)cyclohexyl)-2-(1-(4-methoxy-2,6-dimethylphenylsulfonyl)pyrrolidin-3-yloxy)acetamide]
inhibition at 1 µM [1]: 87%
inhibition at 10 µM [2]: 20%

Cc1ccc(S(=O)(=O)N2CCC(OCC(=O)NC3CCC(C(c4cccc(F)c4)N(C)C)CC3)C2)cc1 (centres unmarked) [Example 167, N-(4-((dimethylamino)(3-fluorophenyl)methyl)cyclohexyl)-2-(1-tosylpyrrolidin-3-yloxy)acetamide]
inhibition at 1 µM [1]: 82%
inhibition at 10 µM [2]: 86%

COc1ccc(S(=O)(=O)N(C)CCOCC(=O)NCC2CCC(C(c3ccccc3)N(C)C)CC2)cc1OC (centres unmarked) [Example 169, 2-(2-(3,4-dimethoxy-N-methylphenylsulfonamido)ethoxy)-N-((4-((dimethylamino)(phenyl)methyl)cyclohexyl)methyl)acetamide]
inhibition at 1 µM [1]: 85%
inhibition at 10 µM [2]: 94%

CN(C)C(c1cccc(F)c1)C1CCC(CNC(=O)COC2CCN(S(=O)(=O)c3cccc(C(F)(F)F)c3)C2)CC1 (centres unmarked) [Example 170, N-((4-((dimethylamino)(3-fluorophenyl)methyl)cyclohexyl)methyl)-2-(1-(3-(trifluoromethyl)phenylsulfonyl)pyrrolidin-3-yloxy)acetamide]
inhibition at 1 µM [1]: 83%
inhibition at 10 µM [2]: 89%

CN(C)C(c1cccc(F)c1)C1CCC(NC(=O)COCCN(C)S(=O)(=O)c2c(Cl)cccc2Cl)CC1 (centres unmarked) [Example 171, 2-(2-(2,6-dichloro-N-methylphenylsulfonamido)ethoxy)-N-(4-((dimethylamino)(3-fluorophenyl)methyl)cyclohexyl)acetamide]
inhibition at 1 µM [1]: 84%
inhibition at 10 µM [2]: 78%

CN(C)C(c1cccc(F)c1)C1CCC(NC(=O)COC2CCN(S(=O)(=O)c3ccc(F)cc3)C2)CC1 (centres unmarked) [Example 172, N-(4-((dimethylamino)(3-fluorophenyl)methyl)cyclohexyl)-2-(1-(4-fluorophenylsulfonyl)pyrrolidin-3-yloxy)acetamide]
inhibition at 1 µM [1]: 78%
inhibition at 10 µM [2]: 79%

COc1cc(C)c(S(=O)(=O)N2CCC(OCC(=O)NCC3CCC(C(c4ccccc4)N(C)C)CC3)C2)c(C)c1 (centres unmarked) [Example 173, N-((4-((dimethylamino)(phenyl)methyl)cyclohexyl)methyl)-2-(1-(4-methoxy-2,6-dimethylphenylsulfonyl)pyrrolidin-3-yloxy)acetamide]
inhibition at 1 µM [1]: 87%
inhibition at 10 µM [2]: 95%

CN(C)C(c1cccc(F)c1)C1CCC(CCNC(=O)COCCN(C)S(=O)(=O)c2c(Cl)cc(Cl)cc2Cl)CC1 (centres unmarked) [Example 174, N-(2-(4-((dimethylamino)(3-fluorophenyl)methyl)cyclohexyl)ethyl)-2-(2-(2,4,6-trichloro-N-methylphenylsulfonamido)ethoxy)acetamide]
inhibition at 1 µM [1]: 90%
inhibition at 10 µM [2]: 97%

CN(C)C(c1cccc(F)c1)C1CCC(NC(=O)COCCN(Cc2ccccc2)S(=O)(=O)c2ccccc2)CC1 (centres unmarked) [Example 175, 2-(2-(N-benzylphenylsulfonamido)ethoxy)-N-(4-((dimethylamino)(3-fluorophenyl)methyl)cyclohexyl)acetamide]
inhibition at 1 µM [1]: 85%
inhibition at 10 µM [2]: 97%

CCN(CCOCC(=O)NC1CCC(C(c2cccc(F)c2)N(C)C)CC1)S(=O)(=O)c1c(C)cc(OC)c(C)c1C (centres unmarked) [Example 176, N-(4-((dimethylamino)(3-fluorophenyl)methyl)cyclohexyl)-2-(2-(N-ethyl-4-methoxy-2,3,6-trimethylphenylsulfonamido)ethoxy)acetamide]
inhibition at 1 µM [1]: 87%
inhibition at 10 µM [2]: 90%

COc1cc(C)c(S(=O)(=O)N2CCC(OCC(=O)NCCC3CCC(C(c4cccs4)N(C)C)CC3)CC2)c(C)c1C (centres unmarked) [Example 177, N-(2-(4-((dimethylamino)(thiophen-2-yl)methyl)cyclohexyl)ethyl)-2-(1-(4-methoxy-2,3,6-trimethylphenylsulfonyl)piperidin-4-yloxy)acetamide]
inhibition at 1 µM [1]: 88%
inhibition at 10 µM [2]: 93%

COc1cc(C)c(S(=O)(=O)N2CCC(CCOCC(=O)NC3CCC(C(c4ccc(F)cc4)N(C)C)CC3)CC2)c(C)c1C (centres unmarked) [Example 178, N-(4-((dimethylamino)(4-fluorophenyl)methyl)cyclohexyl)-2-(2-(1-(4-methoxy-2,3,6-trimethylphenylsulfonyl)piperidin-4-yl)ethoxy)acetamide]
inhibition at 1 µM [1]: 81%
inhibition at 10 µM [2]: 94%
